Assays:
Assay in all cases: relative viability (nuclei count vs DMSO), 5 days (fraction); higher = more cells survive
[1] = compound: C1=CC2=C(C=C(C(=C2N=C1)O)N=NC3=CC4=C(C=C3)C=C(C=C4)S(=O)(=O)O)S(=O)(=O)O + CC(=O)c1c(C)c2cnc(Nc3ccc(N4CCNCC4)cn3)nc2n(C2CCCC2)c1=O [Palbociclib] (partner 0.5 µM)
How it was run: (§1)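 Dosing by pin tool came one day after lung cancer cell lines were seeded in 1536-well plates, using either one drug or a fixed anchor-drug dose plus five library-drug doses (not always all listed) in √10 steps. After 5 days, nuclei were counted on 4× images. Relative viability is treated-well nuclei count divided by vehicle-well nuclei count, and values are medians of duplicate plates.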

[2] = compound: C1=CC2=C(C=C(C(=C2N=C1)O)N=NC3=CC4=C(C=C3)C=C(C=C4)S(=O)(=O)O)S(=O)(=O)O + C[C@@H](Oc1cc(-c2cnn(C3CCNCC3)c2)cnc1N)c1c(Cl)ccc(F)c1Cl [Crizotinib] (partner 1 µM)
How it was run: as §1

AT-7519 + Bortezomib = compound: O=C(NC1CCNCC1)c1n[nH]cc1NC(=O)c1c(Cl)cccc1Cl [AT-7519] + CC(C)C[C@H](NC(=O)[C@H](Cc1ccccc1)NC(=O)c1cnccn1)B(O)O [Bortezomib] (partner 0.002 µM)
How it was run: as §1

AT-7519 + Vorinostat = compound: O=C(NC1CCNCC1)c1n[nH]cc1NC(=O)c1c(Cl)cccc1Cl [AT-7519] + O=C(CCCCCCC(=O)Nc1ccccc1)NO [Vorinostat] (partner 1 µM)
How it was run: as §1

Row | Cell Line | relative viability ([1]; first compound 0.08 µM) | relative viability ([1]; first compound 0.253 µM) | relative viability ([1]; first compound 0.8 µM) | relative viability ([1]; first compound 2.53 µM) | relative viability ([1]; first compound 8 µM) | relative viability ([2]; first compound 0.08 µM) | relative viability ([2]; first compound 0.253 µM) | relative viability ([2]; first compound 0.8 µM) | relative viability ([2]; first compound 2.53 µM) | relative viability ([2]; first compound 8 µM) | relative viability (AT-7519 + Bortezomib; first compound 0.01 µM) | relative viability (AT-7519 + Bortezomib; first compound 0.03162 µM) | relative viability (AT-7519 + Bortezomib; first compound 0.3162 µM) | relative viability (AT-7519 + Bortezomib; first compound 1 µM) | relative viability (AT-7519 + Vorinostat; first compound 0.01 µM) | relative viability (AT-7519 + Vorinostat; first compound 0.03162 µM) | relative viability (AT-7519 + Vorinostat; first compound 0.3162 µM) | relative viability (AT-7519 + Vorinostat; first compound 1 µM)
1 | HCC-827 | 0.537 | 0.451 | 0.492 | 0.455 | 0.542 | 0.97 | 0.886 | 0.971 | 0.911 | 0.998 | 1.1 | 1.1 | 1.05 | 1.06 | 0.928 | 0.827 | 0.958 | 1.02
2 | HOP-62 | 0.481 | 0.423 | 0.42 | 0.513 | 0.499 | 1.14 | 0.725 | 0.701 | 1.09 | 1.02 | 0.723 | 0.825 | 0.827 | 0.718 | 0.555 | 0.608 | 0.682 | 0.565
3 | LC-2-ad | 0.573 | 0.493 | 0.499 | 0.493 | 0.528 | 0.534 | 0.412 | 0.462 | 0.452 | 0.411 | 0.962 | 0.978 | 1.02 | 0.672 | 0.717 | 0.665 | 0.748 | 0.781
4 | LCLC-97TM1 | 0.236 | 0.258 | 0.189 | 0.222 | 0.257 |  | 0.35 |  | 0.424 | 0.325 | 1.22 | 0.58 | 0.379 | 0.123 | 0.955 | 0.703 | 0.526 | 0.379
5 | LCLC-103H | 0.457 | 0.465 | 0.484 | 0.487 | 0.433 | 1.16 | 1.02 | 0.978 | 1.07 | 1.06 | 1.01 | 1.05 | 1.07 | 1.2 | 0.848 | 0.774 | 0.768 | 0.814
6 | LOU-NH91 | 0.573 | 0.524 | 0.503 | 0.559 | 0.558 | 0.765 | 0.704 | 0.739 | 0.79 | 0.717 | 0.541 | 0.541 | 0.468 | 0.478 | 0.932 | 1 | 0.897 | 0.82
7 | LU99A | 0.472 | 0.43 | 0.381 | 0.435 | 0.42 | 0.626 | 0.605 | 0.521 | 0.57 | 0.574 | 1.15 | 1.07 | 1.14 | 0.988 | 0.481 | 0.462 | 0.469 | 0.448
8 | LXF-289 | 0.672 | 0.551 | 0.559 | 0.608 | 0.553 | 0.886 | 0.762 | 0.792 | 0.835 | 0.741 | 0.951 | 1.05 | 0.957 | 1.01 | 0.815 | 0.884 | 0.771 | 0.773
9 | NCI-H23 | 0.538 | 0.471 | 0.448 | 0.574 | 0.477 | 0.539 | 0.614 | 0.463 | 0.533 | 0.51 | 0.983 | 1.04 | 0.852 | 0.504 | 0.598 | 0.619 | 0.513 | 0.4
10 | NCI-H322M | 0.473 | 0.462 | 0.501 | 0.454 | 0.514 | 1.12 | 0.892 | 0.904 | 1.07 | 1.02 | 1.2 | 1.26 | 1.27 | 1.52 | 0.846 | 0.982 | 0.731 | 0.83
11 | NCI-H441 | 0.22 | 0.206 | 0.21 | 0.209 | 0.216 | 0.762 | 0.672 | 0.631 | 0.714 | 0.601 | 0.449 | 0.394 | 0.671 | 0.497 | 0.838 | 0.834 | 0.796 | 0.693
12 | NCI-H460 | 0.174 | 0.081 | 0.183 | 0.279 | 0.229 | 1.16 | 0.98 | 0.85 | 1.09 | 0.836 | 1.05 | 0.91 | 0.533 | 0.046 | 0.569 | 0.619 | 0.674 | 0.0847
13 | NCI-H520 | 0.247 | 0.247 | 0.27 | 0.237 | 0.212 | 0.973 | 0.808 | 0.802 | 0.692 | 0.869 | 0.745 | 0.628 | 0.413 | 0.323 | 0.712 | 0.793 | 0.659 | 0.429
14 | NCI-H647 | 0.413 | 0.404 | 0.386 | 0.387 | 0.37 | 1.36 | 0.865 | 1.05 | 1.08 | 0.962 | 1.04 | 0.909 | 1.21 | 0.564 | 0.568 | 0.369 | 0.562 | 0.244
15 | NCI-H650 | 0.35 | 0.357 | 0.335 | 0.317 | 0.335 | 0.738 | 0.79 | 0.764 | 0.712 | 0.818 | 0.827 | 0.75 | 0.86 | 0.975 | 0.504 | 0.459 | 0.46 | 0.599
16 | NCI-H661 | 0.4 | 0.407 | 0.44 | 0.443 | 0.421 | 1.03 | 0.905 |  | 1.01 | 0.971 | 0.743 | 0.755 | 0.786 | 0.567 | 0.792 | 0.829 | 0.867 | 0.261
17 | NCI-H727 | 0.674 | 0.652 | 0.659 | 0.634 | 0.694 | 1.17 | 0.76 | 0.798 | 0.936 | 0.772 | 0.973 | 0.837 | 0.573 | 0.526 | 1.17 | 1.08 | 1.11 | 0.794
18 | NCI-H838 | 0.254 | 0.216 | 0.227 | 0.249 | 0.26 | 0.992 | 0.734 | 0.848 | 0.943 | 0.811 | 0.644 | 0.804 | 0.416 | 0.0826 | 0.758 | 0.653 | 0.62 | 0.153
